Experimental data taken from patent publication US20060069132A1, “Azolecarboxamide herbicides” (priority 2004, published 2006).

Key:
[1] = test system: barnyardgrass; test: Test A pre-/postemergence herbicide test; format: in vivo, Echinochloa crus-galli; conditions: for Plant response rating, Barnyardgrass: Postemergence; for Barnyardgrass plant response rating: Preemergence
How it was run: (§1)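 Visual injury scores on a 0–100 scale (100 = complete control) taken about ten days post-treatment in greenhouse against untreated controls; dash means no result. Treatments: preemergence soil spray and postemergence spray to runoff on one- to two-leaf plants 2 to 10 cm tall, surfactant-containing formulation.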

[2] = test system: large crabgrass; test: Test A pre-/postemergence herbicide test; format: in vivo, Digitaria sanguinalis; conditions: for Plant response rating, Crabgrass, Large: Postemergence; for Crabgrass, Large plant response rating: Preemergence
How it was run: as §1

[3] = test system: giant foxtail; test: Test A pre-/postemergence herbicide test; format: in vivo, Setaria faberi; conditions: for Plant response rating, Foxtail, Giant: Postemergence; for Foxtail, Giant plant response rating: Preemergence
How it was run: as §1

[4] = test system: morningglory; test: Test A pre-/postemergence herbicide test; format: in vivo, Ipomoea spp.; conditions: for Plant response rating, Morningglory: Postemergence; for Morningglory plant response rating: Preemergence
How it was run: as §1

[5] = test system: redroot pigweed; test: Test A pre-/postemergence herbicide test; format: in vivo, Amaranthus retroflexus; conditions: for Plant response rating, Pigweed: Postemergence; for Pigweed plant response rating: Preemergence
How it was run: as §1

[6] = test system: velvetleaf; test: Test A pre-/postemergence herbicide test; format: in vivo, Abutilon theophrasti; conditions: for Velvetleaf plant response rating: Preemergence
How it was run: as §1

[7] = test system: barnyardgrass; test: Test B pre-/postemergence herbicide test; format: in vivo, Echinochloa crus-galli
How it was run: (§2)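 Response was scored visually 13 to 15 days after treatment against untreated greenhouse controls, 0 meaning no effect and 100 complete control. Formulations (solvent mixture plus surfactant) went onto soil after planting, onto foliage of 1- to 4-leaf plants, and onto 2-leaf plants in a flooded paddy set including rice and barnyardgrass.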

[8] = test system: Surinam grass; test: Test B pre-/postemergence herbicide test; format: in vivo, Urochloa decumbens
How it was run: as §2

[9] = test system: cocklebur; test: Test B pre-/postemergence herbicide test; format: in vivo, Xanthium strumarium
How it was run: as §2

[10] = test system: corn; test: Test B pre-/postemergence herbicide test; format: in vivo, Zea mays
How it was run: as §2

[11] = test system: large crabgrass; test: Test B pre-/postemergence herbicide test; format: in vivo, Digitaria sanguinalis
How it was run: as §2

[12] = test system: giant foxtail; test: Test B pre-/postemergence herbicide test; format: in vivo, Setaria faberi
How it was run: as §2

[13] = test system: lambsquarters; test: Test B pre-/postemergence herbicide test; format: in vivo, Chenopodium album
How it was run: as §2

[14] = test system: morningglory; test: Test B pre-/postemergence herbicide test; format: in vivo, Ipomoea coccinea
How it was run: as §2

[15] = test system: pigweed; test: Test B pre-/postemergence herbicide test; format: in vivo, Amaranthus retroflexus
How it was run: as §2

[16] = test system: rice; test: Test B pre-/postemergence herbicide test; format: in vivo, Oryza sativa
How it was run: as §2

[17] = test system: velvetleaf; test: Test B pre-/postemergence herbicide test; format: in vivo, Abutilon theophrasti
How it was run: as §2

[18] = test system: blackgrass; test: Test B postemergence herbicide test; format: in vivo, Alopecurus myosuroides; conditions: scale 0 (no effect) to 100 (complete control)
How it was run: (§3)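 Visual control ratings, 0–100 versus untreated controls, taken after 13 to 15 days in the greenhouse. Blackgrass received a postemergence spray at the 1- to 4-leaf stage (2–18 cm); ducksalad, umbrella sedge and barnyardgrass were flooded-paddy treated at 2 leaves.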

[19] = test system: wheat; test: Test B postemergence herbicide test; format: in vivo, Triticum aestivum; design: key to Wheat plant response rating: 0 = no effect, 100 = complete control; conditions: scale 0 (no effect) to 100 (complete control)
How it was run: (§4)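 Plants grow to 1- to 4-leaf stage (2–18 cm) for postemergence spraying, or to 2-leaf stage for the paddy test. Formulated compound is applied. Greenhouse holding lasts 13–15 days. Response is scored visually relative to controls, 0 no effect to 100 complete control; a dash means no result.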

[20] = test system: wild oat; test: Test B postemergence herbicide test; format: in vivo, Avena fatua; conditions: scale 0 (no effect) to 100 (complete control)
How it was run: as §4

[21] = test system: rice; test: Test B flooded paddy test; format: in vivo, Oryza sativa; conditions: 1000 g ai/ha, visual rating, scale 0 to 100 (0 no effect, 100 complete control), 13 to 15 days
How it was run: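 Postemergence plants were sprayed with formulated test chemicals at 2 to 18 cm height (1- to 4-leaf stage); paddy species were grown to the 2-leaf stage. After 13 to 15 days in a greenhouse, injury was rated visually against untreated controls on a 0–100 scale (0 = no effect, 100 = complete control).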

[22] = test system: small flower umbrella sedge; test: Test B flooded paddy test; format: in vivo, Cyperus difformis; conditions: 1000 g ai/ha, visual rating, scale 0 to 100 (0 no effect, 100 complete control), 13 to 15 days
How it was run: as §3

[23] = test system: ducksalad; test: Test B flooded paddy test; format: in vivo, Heteranthera limosa; conditions: 1000 g ai/ha, visual rating, scale 0 to 100 (0 no effect, 100 complete control), 13 to 15 days
How it was run: as §3

[24] = test system: barnyardgrass; test: Test B flooded paddy test; format: in vivo, Echinochloa crus-galli; conditions: 1000 g ai/ha, visual rating, scale 0 to 100 (0 no effect, 100 complete control), 13 to 15 days
How it was run: as §3

[25] = 500 g ai/ha, 0 to 100 scale, 0 no effect, 100 complete control
[26] = 2000 g ai/ha, 0 to 100 scale, 0 no effect, 100 complete control
[27] = 500 g ai/ha, visual rating, 0 to 100 scale (0 no effect, 100 complete control)
[28] = Postemergence, 500 g ai/ha, visual rating after 13 to 15 days, scale 0 (no effect) to 100 (complete control)
[29] = Preemergence, 500 g ai/ha, scale 0 to 100
[30] = postemergence, 125 g ai/ha, visual rating, scale 0 (no effect) to 100 (complete control)
[31] = preemergence, 125 g ai/ha, 0 to 100 scale, 0 is no effect, 100 is complete control
[32] = Postemergence, 500 g ai/ha, visual rating after 13 to 15 days
[33] = postemergence, 125 g ai/ha, visual rating

SMILES: CCN(CC)C(=O)c1cc(NC(=O)c2cc(C(C)(C)C)nn2CC)ccc1F [Compound 59]
- Plant response rating, Barnyardgrass [1, 25]: 20
- Plant response rating, Barnyardgrass [1, 26]: 30
- Barnyardgrass plant response rating [1, 27]: 25
- Barnyardgrass plant response rating [1, 26]: 60
- Plant response rating, Crabgrass, Large [2, 25]: 15
- Plant response rating, Crabgrass, Large [2, 26]: 20
- Crabgrass, Large plant response rating [2, 27]: 25
- Crabgrass, Large plant response rating [2, 26]: 45
- Plant response rating, Foxtail, Giant [3, 25]: 15
- Plant response rating, Foxtail, Giant [3, 26]: 20
- Foxtail, Giant plant response rating [3, 27]: 5
- Foxtail, Giant plant response rating [3, 26]: 65
- Plant response rating, Morningglory [4, 25]: 10
- Plant response rating, Morningglory [4, 26]: 10
- Morningglory plant response rating [4, 27]: 10
- Morningglory plant response rating [4, 26]: 40
- Plant response rating, Pigweed [5, 25]: 40
- Plant response rating, Pigweed [5, 26]: 75
- Pigweed plant response rating [5, 27]: 90
- Pigweed plant response rating [5, 26]: 100
- Plant response rating, Velvetleaf ([6]; Postemergence, 2000 g ai/ha, 0 to 100 scale, 0 no effect, 100 complete control): 20
- Velvetleaf plant response rating [6, 27]: 15
- Velvetleaf plant response rating [6, 26]: 55
- Plant response rating, Barnyardgrass [7, 28]: 20
- Barnyardgrass plant response rating [7, 29]: 70
- Barnyardgrass plant response rating [7, 30]: 0
- Plant response rating, Barnyardgrass [7, 31]: 10
- Plant response rating, Surinam Grass [8, 28]: 20
- Surinam Grass plant response rating [8, 29]: 10
- Surinam Grass plant response rating [8, 30]: 10
- Plant response rating, Surinam Grass [8, 31]: 0
- Plant response rating, Cocklebur [9, 28]: 40
- Cocklebur plant response rating [9, 29]: 0
- Cocklebur plant response rating [9, 30]: 10
- Plant response rating, Cocklebur [9, 31]: 0
- Plant response rating, Corn [10, 28]: 20
- Corn plant response rating [10, 29]: 0
- Corn plant response rating [10, 30]: 10
- Plant response rating, Corn [10, 31]: 0
- Plant response rating, Crabgrass, Large [11, 28]: 20
- Crabgrass, Large plant response rating [11, 29]: 20
- Crabgrass, Large plant response rating [11, 30]: 10
- Plant response rating, Crabgrass, Large [11, 31]: 10
- Plant response rating, Foxtail, Giant [12, 28]: 20
- Foxtail, Giant plant response rating [12, 29]: 40
- Foxtail, Giant plant response rating [12, 30]: 0
- Plant response rating, Foxtail, Giant [12, 31]: 0
- Plant response rating, Lambsquarters [13, 28]: 90
- Lambsquarters plant response rating [13, 29]: 100
- Lambsquarters plant response rating [13, 30]: 80
- Plant response rating, Lambsquarters [13, 31]: 90
- Plant response rating, Morningglory [14, 28]: 20
- Morningglory plant response rating [14, 29]: 10
- Morningglory plant response rating [14, 30]: 20
- Plant response rating, Morningglory [14, 31]: 0
- Plant response rating, Pigweed [15, 28]: 80
- Pigweed plant response rating [15, 29]: 100
- Pigweed plant response rating [15, 30]: 70
- Plant response rating, Pigweed [15, 31]: 100
- Rice plant response rating [16, 29]: 0
- Plant response rating, Rice [16, 31]: 0
- Plant response rating, Velvetleaf [17, 28]: 20
- Velvetleaf plant response rating [17, 29]: 40
- Velvetleaf plant response rating [17, 30]: 20
- Plant response rating, Velvetleaf [17, 31]: 10
- Plant response rating, Blackgrass [18, 32]: 0
- Blackgrass plant response rating [18, 33]: 0
- Plant response rating, Wheat [19, 32]: 10
- Wheat plant response rating [19, 33]: 0
- Plant response rating, Oat, Wild [20, 32]: 20
- Oat, Wild plant response rating [20, 33]: 10
- Rice plant response rating [21]: 0
- Sedge, Umbrella plant response rating [22]: 0
- Ducksalad plant response rating [23]: 0
- Barnyardgrass plant response rating [24]: 0
